Test results: patent publication US20040087539A1, “Method of treating conditions related to platelet activity” (priority 2003, published 2004)

Assays:
[1] = system: CHO cells expressing human platelet receptors; experiment: Cell adhesion to immobilized vWF under flow; assay type: cell-based, Chinese Hamster; conditions: FIG. 2C; sildenafil 5 μM, RGDS 4 mM; 8-bromo-cGMP not shown
Procedure: CHO cells expressing human platelet receptors were resuspended in modified Tyrode's buffer, pH 7.4, containing 1 mg/mi of bovine serum albumin (BSA) (see Ref. 46), and final cell count was 5×10^5/ml. […] Purified human vWF (10 μg/ml in 0.1 M NaHCO3, pH 8.3) was added to glass microcapillary tubes (inner diameter of 1.33 mm and a length of 7.2 cm), and incubated at 4° C. for 20 h. The vWF-coated microcapillary tubes then were incubated with 5% BSA. After washing, the cell suspension was aspirated through the tube by a syringe pump (Harvard Apparatus Inc.) at desired shear rates for 1.2 minutes and washed with modified Tyrode's buffer for additional 10 minutes at the same shear rates to remove transiently adherent cells. The experiments were continuously recorded on videotape using a video cassette recorder (model 9500, Sony). The number of stably adherent cell on immobilized vWF was counted on images obtained at 20 randomly selected positions in the vWF-coated tubes.
In FIGS. 2A and B, vWF-coated capillary tubes were perfused with equivalent numbers (5×10^5/ml) of CHO cells expressing recombinant GPLb-JX alone (1b9), integrin αIIbβ3 alone (2b3a), both GPIb-IX and integrin αIIbβ3 (123) or expressing GPJb-JX, integrin α^IIbβ3 and PKG Ia (123PKG) at a shear rates of 800 s^−1 (A) or 1500 s^−1 (B) for 1.2 minutes, and then perfused with the modified Tyrodes buffer for 10 minutes at the same shear rates to wash out transient adherent cells. The expenments were recorded in real time. Cells stably adherent to vWF-coated capillary tubes at 20 randomly selected locations were counted.
In FIG. 2C, vector-transfected 123 cells (123) or 123PKG cells also was perfused into vWF-coated glass capillary tubes as described in FIG. 2A in the absence or presence (+RGDS) of an integrin inhibitor RGDS peptide (4 mM) and in the absence (Control) or presence of cGMP-enhancing drug, sildenafil (5 μM). […] The experiments were repeated at least three times.

platelets = experiment: Ristocetin-induced vWF-dependent platelet aggregation in platelet-rich plasma; assay type: cell-based, human
Procedure: Fresh blood from healthy volunteers was anticoagulated with 1/7 volume of ACD (2.5% trisodium citrate, 2% dextrose and 1.5% citric acid). Platelets were washed with CGS buffer (sodium chloride 0.12 M, trisodium citrate 0.0129 M and d-glucose 0.03 M, pH 6.5), resuspended in modified Tyrode's solution and allowed to incubate at 22° C. for 1 hours as previously described. In experiments using platelet-rich plasma (PRP), 1/10 volume of 3.8% trisodium citrate was used as anticoagulant. Platelet aggregation was measured using a turbidometric platelet aggregometer (Chrono-Log) at 37° C. vWF-dependent platelet aggregation was induced by addition of ristocetin or botrocetin to PRP. To differentiate CPIb-IX-mediated platelet agglutination from the second wave of integrin-dependent platelet aggregation, final concentrations of ristocetin were adjusted in each experiment to achieve a two-wave curve of aggregation. Washed platelets were used in platelet aggregation induced by a-thrombin (Enzyme Research Laboratories). To examine the effects of PKG, 100 μM of membrane permeable cGMP analogs, 8-bromo-cGMP or 8-dibutyl-cGMP (Calbiochem), or 1 μM sildenafil citrate (Pfizer) and added simultaneously with subthreshold concentrations of agonists. PKG inhibitors KT5823 (2 pM) and Rp-8PCPT-cGMP (0.2 mM) were preincubated with platelets at 37° C. for 5 minutes before addition of agonists.
In FIG. 3A, platelet rich-plasma (PRP) was preincubated at 37° C. for 5 mm with PKG inhibitors KT5823 (2 pM) or Rp-8pCPT-cGMP (0.2 μM). PRP was also incubated with DMSO (vehicle for KT5823), a PKA inhibitor, KT5720 (2 pM), or buffer (Control). The vWF modulator, ristocetin, was then added to induce vWF-GPIb-IX interaction. […] In FIG. 3B, a subthreshold concentration of ristocetin was added to PRP immediately followed by addition of 8-bromo-cGMP or buffer (Control). PRP also was preincubated with integrin inhibitor RGDS before adding ristocetin and 8-bromo-cGMP. In FIG. 3C, platelets were preincubated with or without PKG inhibitor KT5823, then allowed to spread on vWF-coated glass chamber slides. Platelets were stained with an anti-GPIb antibody, and fluorescein-labeled secondary antibody. The slides were imaged under a confocal microscope (magnification =630×).
In FIG. 6A, increasing concentrations of sildenafil or control 0.15 M NaCl solution were added to platelet-rich plasma followed by a subthreshold concentration of ristocetin. Platelet aggregation was recorded using a platelet aggregometer. In FIG. 6B, sildenafil or control buffer was added to washed platelets followed by addition of subthreshold doses of thrombin to induce platelet aggregation. It was noted that platelet aggregation occurs in the presence of sildenafil. The figure includes the representative results of at least three experiments.
In FIG. 7A, PRP was preincubated with 0.1 mM 8-bromo-cGMP for increasing lengths of time at 37° C. as indicated. The vWF modulator, ristocetin (1.25 mg/ml), then was added to induce platelet aggregation in a turbidometric platelet aggregometer. In FIG. 7B, PRP was preincubated with a high concentration of 8-bromo-cGMP (1 mM) for 5 minutes. Ristocetin then was added to induce platelet aggregation. In FIGS. 7C and 7D, washed platelets in modified Tyrode's solution were preincubated with 1 mM 8-bromo-cGMP (C), or various concentrations of 8-pCPT-cGMP (D) at 37° C. for 5 minutes. Thrombin (0.05 u/ml) then was added to induce platelet aggregation.

Nc1nc2c(nc(Br)n2[C@@H]2O[C@@H]3COP(=O)(O)O[C@H]3[C@H]2O)c(=O)[nH]1 [8-bromo-cGMP]
stable adhesion of PKG-expressing 123 cells (123PKG) to vWF under flow [1]: enhanced | preincubation time required to inhibit platelets (platelets; 1 mM 8-bromo-cGMP, FIGS. 7B, 7C): less than 5 minutes | preincubation time after which the inhibitory effect on platelet aggregation becomes significant (platelets; 8-bromo-cGMP 100 μM (0.1 mM), PRP, 37° C., ristocetin 1.25 mg/ml, FIG. 7A): 10 min | GPIb-IX-dependent platelet activation, agent added simultaneously with ristocetin (platelets; 8-bromo-cGMP 100 μM, FIG. 7A): promoted | platelet aggregation together with a subthreshold concentration of ristocetin (platelets; PRP, agent added with subthreshold ristocetin (1 mg/mm [sic]) (or botrocetin), FIGS. 3B, 6A): induced integrin-dependent platelet aggregation | preincubation time required for a slight inhibitory effect (platelets; in some experiments, not shown): 30 min
